System: cotton hypocotyl explants
Experiment: Cotton transformation: embryogenic callus formation, lipoic acid in UMSEL media
Assay type: cell-based
Details: average from 3 experiments
Procedure: Cotton seed was washed in 2 teaspoons of detergent in 700-800 mL of sterile water for 10 minutes. Seed was then soaked in fungicide solution (0.6 g benlate, 0.6 g captan per 100 mL sterile water) for 10 min, drained, but not rinsed. Seed was imbibed for 30 minutes in 800 mL of 50% Clorox with 3 drops of Tween-20 and then rinsed 3 times with sterile water. Seed was spread in a sterile phytatray containing 1/2 MS plus 1% glucose media at a density of approximately 20 seeds per tray. Seeds were germinated in the dark at 28° C. for 7-10 days.
Agrobacterium was prepared by streaking a solid LBssck plate from frozen stock and incubating at 28° C. for 2 days. Two mL of liquid LBssck was inoculated with a single colony from the plate and grown overnight at 28° C. Culture is diluted 1:10 with fresh LBssck and cultured overnight at 28° C. The cells were spun down, the supernatant was poured off, cells were washed with MSO media and then resuspended in 20 mL of MSO.
Explants were harvested by cutting off the cotyledons and then making a cut approximately 4 to 6 cm below the cotyledon. Hypocotyl sections were placed in MSO media and then cut into 0.5 to 1 cm pieces.
Twenty mL of Agrobacterium broth was added to 100 to 500 cut explant sections and allowed to soak for 20 minutes. Explants were moved to co-culture medium (TrCO; see media descriptions below), covered with a plastic bag and co-cultured at room temperature for 2 days. After co-culture, explants were moved to UMSEL (1) media (with kanamycin or glyphosate selection), parafilmed and cultured in the light ( 16/8 photoperiod) at 28° C. for 4 weeks. Tissue was then transferred to fresh UMSEL (2) media containing selection in the same culture conditions for an additional 4 weeks.
Independent calli that had formed were then moved to UMO(1) containing selection, parafilmed and cultured in the dark at 28° C. for 8 weeks. After 8 weeks, tissue was transferred to fresh UMO(2) containing selection, parafilmed, and cultured in the dark for an additional 8 weeks. Good embryogenic callus was moved to TRP embryo maturation media, parafilmed and cultured in the dark at 28° C. Embryogenic callus was subcultured to fresh TRP media every 4 weeks until somatic embryos formed and were moved to SHSU embryo germination media. Once on parafilmed SHSU plates, the shoots were placed in the light at 28° C. and subcultured every four weeks until roots began to form. When healthy roots and leaves were present, the shoots were moved to SHSU media in sundae cups and eventually to soil.

[1] = 5 μM lipoic acid for 8 weeks in UMSEL media
[2] = 10 μM lipoic acid for 8 weeks in UMSEL media
[3] = 50 μM lipoic acid for 8 weeks in UMSEL media
[4] = 100 μM lipoic acid for 8 weeks in UMSEL media

O=C(O)CCCCC1CCSS1 (centres unmarked) [lipoic acid, 1,2-dithiolane-3-pentanoic acid]
Frequency (%) of embryogenic callus formation [1]: 49.4% | Putative embryogenic calli [1]: 132 | Frequency (%) of embryogenic callus formation [2]: 31.4% | Putative embryogenic calli [2]: 88 | Frequency (%) of embryogenic callus formation [3]: 61.2% | Putative embryogenic calli [3]: 120 | Frequency (%) of embryogenic callus formation [4]: 56.6% | Putative embryogenic calli [4]: 107
